How the values were obtained:
[1] = biological target: Methyl-CpG-binding domain protein 4 (Homo sapiens) (UniProt O95243);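 also: MBD4 activity read as fluorescence at 594 nm from cleavage and release of a quenched duplex DNA oligonucleotide, with APE1 coupled to incise the strand and raise turnover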
Description: Inhibition of MBD4 by quantifying inhibition of MBD4-mediated cleavage and dissociation of quenched duplex DNA oligonucleotides, measured as fluorescence at 594 nm. To generate a functional strand incision and increase turn-over this assay is coupled to APE1.

[2] = biological target: T1, Adenine DNA glycosylase (Homo sapiens) (UniProt Q9UIF7); details: Hit No;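 also: human MUTYH activity read as 594 nm fluorescence from cleavage and release of a quenched DNA duplex, coupled with APE1 for strand incision, lower signal meaning inhibition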
T1 sequence (whole entry): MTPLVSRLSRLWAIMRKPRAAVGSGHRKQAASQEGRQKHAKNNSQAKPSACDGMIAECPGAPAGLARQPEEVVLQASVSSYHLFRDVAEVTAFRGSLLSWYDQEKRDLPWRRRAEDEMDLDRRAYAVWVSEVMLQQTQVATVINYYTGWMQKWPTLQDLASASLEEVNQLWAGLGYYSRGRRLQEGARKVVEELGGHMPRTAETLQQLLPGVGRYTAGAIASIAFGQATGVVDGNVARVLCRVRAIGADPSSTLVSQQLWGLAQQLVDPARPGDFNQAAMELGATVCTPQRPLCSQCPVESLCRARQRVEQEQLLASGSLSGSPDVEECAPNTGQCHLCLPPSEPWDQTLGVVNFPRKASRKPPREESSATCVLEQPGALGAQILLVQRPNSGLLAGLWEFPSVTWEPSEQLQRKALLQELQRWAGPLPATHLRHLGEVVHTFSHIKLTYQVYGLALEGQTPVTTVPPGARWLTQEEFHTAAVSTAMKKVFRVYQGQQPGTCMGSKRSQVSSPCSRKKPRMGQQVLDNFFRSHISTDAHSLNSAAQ
Description: Inhibition of MUTYH by quantifying inhibition of MUTYH-mediated cleavage and dissociation of quenched duplex DNA oligonucleotides, measured as fluorescence at 594 nm. To generate a functional strand incision and increase turn-over this assay is coupled to APE1.

[3] = biological target: T2, Endonuclease 8-like 2 (Homo sapiens) (UniProt Q969S2); details: Hit No;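 also: fluorescence at 594 nm reports NEIL2 cutting and release of a quenched double-stranded DNA oligo substrate, reduced signal read as inhibition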
T2 sequence (whole entry): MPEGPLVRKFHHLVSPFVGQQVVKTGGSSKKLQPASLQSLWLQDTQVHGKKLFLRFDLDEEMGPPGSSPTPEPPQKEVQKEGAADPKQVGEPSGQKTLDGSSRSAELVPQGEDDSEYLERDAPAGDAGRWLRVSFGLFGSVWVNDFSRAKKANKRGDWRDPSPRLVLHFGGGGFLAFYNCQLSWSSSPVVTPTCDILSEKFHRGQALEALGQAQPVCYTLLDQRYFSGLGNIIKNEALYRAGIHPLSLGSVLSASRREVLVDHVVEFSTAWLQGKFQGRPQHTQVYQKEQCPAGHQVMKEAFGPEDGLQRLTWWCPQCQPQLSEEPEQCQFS
Description: Inhibition of NEIL2 by quantifying inhibition of NEIL2-mediated cleavage and dissociation of quenched duplex DNA oligonucleotides, measured as fluorescence at 594 nm.

[4] = biological target: T3, Endonuclease III-like protein 1 (Homo sapiens) (UniProt P78549); details: Hit No;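 also: enzyme assay tracking NTHL1 cutting and release of a quenched double-stranded DNA oligo substrate, read as fluorescence at 594 nm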
T3 sequence (whole entry): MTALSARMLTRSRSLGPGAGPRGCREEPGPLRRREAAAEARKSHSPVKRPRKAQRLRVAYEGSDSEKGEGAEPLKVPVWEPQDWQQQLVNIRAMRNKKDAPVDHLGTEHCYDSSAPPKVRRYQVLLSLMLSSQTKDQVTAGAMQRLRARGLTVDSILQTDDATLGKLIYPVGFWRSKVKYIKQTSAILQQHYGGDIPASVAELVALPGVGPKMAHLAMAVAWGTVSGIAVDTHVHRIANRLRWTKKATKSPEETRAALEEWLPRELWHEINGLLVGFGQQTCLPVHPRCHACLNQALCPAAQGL
Description: Inhibition of NTHL1 by quantifying inhibition of NTHL1-mediated cleavage and dissociation of quenched duplex DNA oligonucleotides, measured as fluorescence at 594 nm.

[5] = biological target: N-glycosylase/DNA lyase (Homo sapiens) (UniProt O15527);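 also: OGG1 cleavage of a quenched duplex DNA oligonucleotide, coupled to APE1 for strand incision, read as fluorescence at 594 nm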
Description: Inhibition of OGG1 by quantifying inhibition of OGG1-mediated cleavage and dissociation of quenched duplex DNA oligonucleotides, measured as fluorescence at 594 nm. To generate a functional strand incision and increase turn-over this assay is coupled to APE1.

[6] = biological target: T4, Single-strand selective monofunctional uracil DNA glycosylase (Homo sapiens) (UniProt Q53HV7); details: Hit No;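 also: enzymatic SMUG1 assay coupled with APE1, reading fluorescence at 594 nm released when a quenched double-stranded DNA oligonucleotide substrate is cleaved and separated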
T4 sequence (whole entry): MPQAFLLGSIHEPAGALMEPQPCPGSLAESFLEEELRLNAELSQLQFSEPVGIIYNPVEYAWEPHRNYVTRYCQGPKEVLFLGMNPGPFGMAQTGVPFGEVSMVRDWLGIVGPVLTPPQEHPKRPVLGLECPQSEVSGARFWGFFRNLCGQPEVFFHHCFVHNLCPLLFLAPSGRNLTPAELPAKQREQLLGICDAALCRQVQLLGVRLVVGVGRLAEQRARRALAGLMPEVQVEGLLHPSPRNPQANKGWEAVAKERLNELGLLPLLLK
Description: Inhibition of SMUG1 by quantifying inhibition of SMUG1-mediated cleavage and dissociation of quenched duplex DNA oligonucleotides, measured as fluorescence at 594 nm. To generate a functional strand incision and increase turn-over this assay is coupled to APE1.

[7] = biological target: G/T mismatch-specific thymine DNA glycosylase (Homo sapiens) (UniProt Q13569);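 also: human TDG cleavage of quenched duplex DNA oligonucleotides coupled to APE1, strand release read as fluorescence at 594 nm, inhibition of TDG activity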
Description: Inhibition of TDG by quantifying inhibition of TDG-mediated cleavage and dissociation of quenched duplex DNA oligonucleotides, measured as fluorescence at 594 nm. To generate a functional strand incision and increase turn-over this assay is coupled to APE1.

[8] = biological target: Uracil-DNA glycosylase (Homo sapiens) (UniProt P13051); details: Hit No;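 also: UNG excision on a quenched double-stranded DNA oligo probe, with APE1 added for strand incision and turnover, read as fluorescence at 594 nm as strands separate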
Description: Inhibition of UNG by quantifying inhibition of UNG-mediated cleavage and dissociation of quenched duplex DNA oligonucleotides, measured as fluorescence at 594 nm. To generate a functional strand incision and increase turn-over this assay is coupled to APE1.

[9] = biological target: Endonuclease 8-like 1 (Homo sapiens) (UniProt Q96FI4); details: Hit No;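 also: fluorescence at 594 nm from quenched duplex DNA oligonucleotides released by NEIL1 cleavage and strand separation, reported as reduction of this enzyme activity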
Description: Inhibition of NEIL1 by quantifying inhibition of NEIL1-mediated cleavage and dissociation of quenched duplex DNA oligonucleotides, measured as fluorescence at 594 nm.

[10] = Compound Concentration 10.0 uM, Hit No
[11] = Compound Concentration 1.0 uM, Hit No
[12] = Compound Concentration 10.0 uM, Hit Yes

Chain of Endonuclease 8-like 1 (Homo sapiens) (Q96FI4 whole entry): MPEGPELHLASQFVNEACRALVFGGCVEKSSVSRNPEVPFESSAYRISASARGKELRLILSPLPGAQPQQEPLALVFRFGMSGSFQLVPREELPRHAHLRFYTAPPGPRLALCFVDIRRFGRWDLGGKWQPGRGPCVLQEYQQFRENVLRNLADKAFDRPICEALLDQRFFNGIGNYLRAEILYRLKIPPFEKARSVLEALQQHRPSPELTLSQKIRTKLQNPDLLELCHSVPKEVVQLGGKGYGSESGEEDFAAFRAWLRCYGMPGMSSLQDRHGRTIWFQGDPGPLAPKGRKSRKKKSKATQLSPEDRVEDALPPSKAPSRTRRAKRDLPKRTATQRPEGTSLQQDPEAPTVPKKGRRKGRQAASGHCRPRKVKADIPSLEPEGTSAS
Chain of G/T mismatch-specific thymine DNA glycosylase (Homo sapiens) (Q13569 whole entry): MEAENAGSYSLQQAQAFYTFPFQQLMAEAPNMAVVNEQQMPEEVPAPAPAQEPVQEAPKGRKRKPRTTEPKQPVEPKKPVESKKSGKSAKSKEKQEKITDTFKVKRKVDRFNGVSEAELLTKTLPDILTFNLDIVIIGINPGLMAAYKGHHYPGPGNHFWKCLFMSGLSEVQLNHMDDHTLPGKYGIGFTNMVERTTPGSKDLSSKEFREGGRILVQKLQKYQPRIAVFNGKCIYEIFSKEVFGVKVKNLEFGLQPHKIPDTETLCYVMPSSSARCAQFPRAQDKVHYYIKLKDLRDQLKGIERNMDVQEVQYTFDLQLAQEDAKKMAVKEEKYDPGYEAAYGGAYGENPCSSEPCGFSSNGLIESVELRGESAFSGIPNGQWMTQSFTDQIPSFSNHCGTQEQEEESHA
Chain of Methyl-CpG-binding domain protein 4 (Homo sapiens) (O95243 whole entry, the tested form may be a part): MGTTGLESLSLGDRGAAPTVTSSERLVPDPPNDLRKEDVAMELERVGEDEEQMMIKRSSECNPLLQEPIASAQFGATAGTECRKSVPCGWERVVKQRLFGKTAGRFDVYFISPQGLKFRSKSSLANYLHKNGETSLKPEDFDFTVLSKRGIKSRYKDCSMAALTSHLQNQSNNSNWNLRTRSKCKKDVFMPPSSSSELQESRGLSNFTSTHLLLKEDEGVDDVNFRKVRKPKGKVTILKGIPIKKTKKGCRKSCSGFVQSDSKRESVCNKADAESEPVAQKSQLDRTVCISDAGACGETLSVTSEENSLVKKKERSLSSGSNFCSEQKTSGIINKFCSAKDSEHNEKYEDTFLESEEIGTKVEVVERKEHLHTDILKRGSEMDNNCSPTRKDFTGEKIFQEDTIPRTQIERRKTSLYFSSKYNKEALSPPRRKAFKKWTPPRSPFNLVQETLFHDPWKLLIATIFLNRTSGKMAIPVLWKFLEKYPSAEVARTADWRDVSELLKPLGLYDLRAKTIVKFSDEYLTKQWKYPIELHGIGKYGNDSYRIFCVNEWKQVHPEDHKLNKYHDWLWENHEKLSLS
Chain of N-glycosylase/DNA lyase (Homo sapiens) (O15527 whole entry): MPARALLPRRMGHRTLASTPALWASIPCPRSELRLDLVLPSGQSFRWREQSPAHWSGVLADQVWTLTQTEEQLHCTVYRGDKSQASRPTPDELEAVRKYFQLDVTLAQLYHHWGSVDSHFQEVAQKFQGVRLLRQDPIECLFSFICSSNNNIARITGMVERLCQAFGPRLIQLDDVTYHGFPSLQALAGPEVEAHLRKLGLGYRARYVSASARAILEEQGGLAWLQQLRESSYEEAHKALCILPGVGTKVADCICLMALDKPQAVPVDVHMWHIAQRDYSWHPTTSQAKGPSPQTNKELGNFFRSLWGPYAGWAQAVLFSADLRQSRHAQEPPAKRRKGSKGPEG
Chain of Uracil-DNA glycosylase (Homo sapiens) (P13051 whole entry): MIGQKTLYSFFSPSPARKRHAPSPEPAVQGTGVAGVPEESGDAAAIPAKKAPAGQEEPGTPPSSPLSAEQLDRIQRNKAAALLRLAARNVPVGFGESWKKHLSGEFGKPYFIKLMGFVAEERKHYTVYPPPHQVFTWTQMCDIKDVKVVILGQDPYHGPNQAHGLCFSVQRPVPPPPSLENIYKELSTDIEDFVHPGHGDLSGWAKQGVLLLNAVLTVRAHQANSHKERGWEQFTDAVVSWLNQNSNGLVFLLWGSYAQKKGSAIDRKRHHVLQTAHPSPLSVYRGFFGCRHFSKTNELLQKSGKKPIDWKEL

| SMILES | inhibition [1, 10] | inhibition ([2]; Compound Concentration 10.0 uM) | inhibition ([4]; Compound Concentration 10.0 uM) | inhibition [5, 10] | inhibition ([6]; Compound Concentration 10.0 uM) | inhibition [7, 10] | inhibition ([8]; Compound Concentration 10.0 uM) | inhibition ([9]; Compound Concentration 10.0 uM) | inhibition [1, 11] | inhibition ([2]; Compound Concentration 1.0 uM) | inhibition ([4]; Compound Concentration 1.0 uM) | inhibition [5, 11] | inhibition ([6]; Compound Concentration 1.0 uM) | inhibition [7, 11] | inhibition ([8]; Compound Concentration 1.0 uM) | also measured |
| --- | --- | --- | --- | --- | --- | --- | --- | --- | --- | --- | --- | --- | --- | --- | --- | --- |
| O=C(NCc1ccccc1)c1ccc(S(=O)(=O)NCc2ccccc2)cc1 | -9.13% | 27.8% | -8.98% | 32.2% | 24.3% | 39% | 3.04% | -2.64% |  |  |  |  |  |  |  |  |
| O=C(O)Cc1cc(I)c(Oc2ccc(O)c(I)c2)c(I)c1 | 63.6% | -6.77% | 15.2% | 32.3% | 30.4% | 40.4% | 3.85% |  |  |  |  |  |  |  |  | inhibition ([3]; Compound Concentration 10.0 uM): -3.55% |
| COc1ccc(OC(=O)N(CC(=O)O)Cc2ccc(OCCc3nc(-c4ccccc4)oc3C)cc2)cc1 | 67.6% | 29.2% | 5.94% | 27% | 20.2% | 53.7% | 3.56% |  |  |  |  |  |  |  |  |  |
| CN(C)C(=O)Cn1cc(-c2ccc(-c3nnc4ccccn34)cc2)cn1 |  |  |  |  |  |  |  |  | 7.42% | 27.4% | -9.68% | 3.29% | 22.7% |  | 2.39% | inhibition ([9]; Compound Concentration 1.0 uM): -1.84%; inhibition ([7]; Compound Concentration 1.0 uM, Hit Yes): 100% |
| CC(C)(O)c1ccc(N2Cc3c(ccnc3-c3ccc(F)cc3OCC(F)(F)F)C2=O)cc1 |  |  |  |  |  |  |  |  | 55.3% | -6.44% | -1.95% | -2.43% | 2.79% | 51.2% | 3.14% | inhibition ([9]; Compound Concentration 1.0 uM): -3.02% |
| COc1cc(N(C)c2ccnc3ccc(C(F)(F)F)cc23)cc(OC)c1OC | 5.39% | -1.88% | 2.18% | 1.25% | 13.4% | 33.1% | 1.59% | 4.23% |  |  |  |  |  |  |  |  |
| COC[C@H](NC(=O)c1ccn(S(C)(=O)=O)c1)C(=O)Nc1nc(-c2cccc(-c3ccn(C)n3)c2)cs1 |  |  |  |  |  |  |  |  | 43.1% | 2.68% | -3.92% | -7.59% | 16.9% | 48.2% | 4.22% |  |
| COCCOc1nc(-c2ccc(Cl)nc2)nc2c1CN(C(=O)c1ncn3ccccc13)CC2 |  |  |  |  |  |  |  |  | 67.8% | -6.39% | -3.92% | -1.84% | 8.24% | 39.9% | -0.22% | inhibition ([9]; Compound Concentration 1.0 uM): -3.17% |
| CN(C)CCN(Cc1ccc(-c2ccc(CNCCc3ccccc3)cc2)cc1)C(=O)CCC1CCCC1 |  | 93.4% | 8% | 3.9% | -6.4% |  | 1.96% | 4.6% |  |  |  |  |  |  |  | inhibition [1, 12]: 78.7%; inhibition [7, 12]: 80.3% |
| C[C@H](CCOc1cccc(CC(=O)O)c1)N(Cc1cccc(C(F)(F)F)c1Cl)CC(c1ccccc1)c1ccccc1 | 61.9% | -7.97% | 11.9% |  | 19% | 52% | 0.574% | -4.38% |  |  |  |  |  |  |  | inhibition [5, 12]: 103% |
| c1ccc(-c2oc3ncnc(NC[C@@H]4CCCO4)c3c2-c2ccccc2)cc1 |  |  |  |  |  |  |  |  | 18.1% | 3.16% | 7.06% | 6.47% | 21.6% | 35.9% | 4.04% | inhibition ([9]; Compound Concentration 1.0 uM): -7.66% |
| CCn1c(=O)c(C)cn(Cc2nnc(-c3ccc(F)c(O)c3F)s2)c1=O | 53.9% | -9.23% | 2% | -4.39% | 3.85% | 48% | -4.5% |  |  |  |  |  |  |  |  |  |
| Cn1cncc1[C@@](O)(COc1ccc(C#N)cc1-c1ccc(OC(F)(F)F)cc1)c1ccc(C#N)cc1 | 56% | -9.72% | 7.26% | 10.2% | -1.81% | 45.8% | -3.07% |  |  |  |  |  |  |  |  |  |
| C[C@@H]1CN(c2cc(-c3n[nH]c4ccc(OC5(C)CC5)cc34)ncn2)C[C@H](C)O1 | 64.1% | 9.89% | 2% | -2.23% | 18% | 98.4% | 3.96% | -1.5% | 12.4% | -7.22% | -1.31% | 12.9% | 23.1% | 48.1% | 7.33% | inhibition ([9]; Compound Concentration 1.0 uM): -2.64% |

Second part, led by results:

| inhibition [1, 10] | inhibition ([2]; Compound Concentration 10.0 uM) | inhibition ([4]; Compound Concentration 10.0 uM) | inhibition [5, 10] | inhibition ([6]; Compound Concentration 10.0 uM) | inhibition [7, 10] | inhibition ([8]; Compound Concentration 10.0 uM) | inhibition ([9]; Compound Concentration 10.0 uM) | inhibition [1, 11] | inhibition ([2]; Compound Concentration 1.0 uM) | inhibition ([4]; Compound Concentration 1.0 uM) | inhibition [5, 11] | inhibition ([6]; Compound Concentration 1.0 uM) | inhibition [7, 11] | inhibition ([8]; Compound Concentration 1.0 uM) | SMILES | also measured |
| --- | --- | --- | --- | --- | --- | --- | --- | --- | --- | --- | --- | --- | --- | --- | --- | --- |
| 55.6% | 1.64% | -9.83% | 1.66% | 9.87% | 56.4% | -2.41% |  |  |  |  |  |  |  |  | O=C(N1CCS(=O)(=O)CC1)N1C[C@H](c2ccc(OC(F)(F)F)cc2)C[C@H](c2nc(C3CC3)no2)C1 | inhibition ([3]; Compound Concentration 10.0 uM): -9.67% |
| 54.4% | -7.15% | 3.97% | -5.03% | 5.39% | 37.2% | 1.95% |  |  |  |  |  |  |  |  | CCC(=O)N[C@@H]1CC[C@H](C(=O)N(C)c2ccc(-c3nc4ccccc4o3)cc2)C1 | inhibition ([3]; Compound Concentration 10.0 uM): 4.61% |
| 18% | -7.96% | -0.841% | 9.13% | 12.7% | 65% | 1.3% |  |  |  |  |  |  |  |  | CN(C)c1ncnc(-c2ccc3nc(Nc4cc(CN5CCN(C(=O)CC(F)(F)F)CC5)ccn4)[nH]c3c2)c1Cl | inhibition ([3]; Compound Concentration 10.0 uM): -5.65% |
|  |  |  |  |  |  |  |  | 20.6% | 9.35% | 10.6% | 4.23% | 24.1% | 61.6% | 6.67% | C[C@@H]1CCN(C(=O)CC#N)C[C@@H]1N(C)c1ncnc2[nH]ccc12 | inhibition ([3]; Compound Concentration 1.0 uM): -1.11% |
| 54.1% | -6.66% | 0.685% | 3.33% | 18.6% | 35.4% | 1.33% | -4.68% |  |  |  |  |  |  |  | CCOCCn1cc(C(=O)Nc2ccc(-n3nc(-c4cccnc4)cc3C(F)(F)F)cn2)ccc1=O |  |
| 1.23% | 6.44% | -0.61% | 22.7% | 16.9% | 51.5% | 4.09% | -0.391% |  |  |  |  |  |  |  | CC(C)(C)c1ccc(C(=O)Nc2cn3cc(-n4ccnc4)ccc3n2)cc1 |  |
|  |  |  |  |  |  |  |  | 58.8% | 0.168% | -7.2% | -4.69% | 13.6% | 100% | 5.87% | CNC(=O)Nc1ccc2c(c1)CC[C@@]21OC(=O)N(CC(=O)N(Cc2ccc(F)cc2)[C@@H](C)C(F)(F)F)C1=O | inhibition ([9]; Compound Concentration 1.0 uM): -8.77% |
| -7.39% | 36.6% | -2.7% | -5.59% | 19.6% | 38.4% | 6.61% | -0.787% |  |  |  |  |  |  |  | CN(C)C(=O)N1CC[C@H](NC2=Nc3cc(F)ccc3N(CC(F)F)c3ccc(Cl)cc32)C1 |  |
| 55.9% | 10.4% | 0.685% | -5.03% | 19.9% | 59.6% | 1.28% |  |  |  |  |  |  |  |  | Cc1nccc(COC(=O)N2C[C@@H]3[C@@H](CNC(=O)c4ccc5[nH]nnc5c4)[C@@H]3C2)n1 |  |
